Laboratory results taken from patent US11629171B2, “Beta-hairpin peptidomimetics” (POLYPHOR AG, priority 2017, dated 2023).
Converted amounts (≈) assume the structure as drawn. Where a SMILES comes first, the peptide text is derived from it. Bridges are numbered along the chain shown (N, C = ends). Roman numbers before positions name the chains, in order. [ ]: non-standard residue; d: D form. The star is where a group is joined. d(pGlu) = O=C1CC[C@H](C(=O)O)N1; dThr(ol) = C[C@H](O)[C@@H](N)CO; Thr(ol) = C[C@@H](O)[C@H](N)CO; Tle = CC(C)(C)[C@H](N)C(=O)O; NMeV = CN[C@H](C(=O)O)C(C)C; Hiv = CC(C)[C@H](O)C(=O)O; dDab = NCC[C@@H](N)C(=O)O; hSer = N[C@@H](CCO)C(=O)O; NHCH(CH2OH)2 = OCC(CO)N*; Orn = NCCC[C@H](N)C(=O)O; Dab = NCC[C@H](N)C(=O)O; Dap = NC[C@H](N)C(=O)O; Propionyl = CCC(=O)*

Experiments:
Format in all cases: cell-based
[1] = test system: human red blood cells (hRBC); assay: Hemolysis; settings: red cells of human, 1 h, 200
Summary of the method: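 First, fresh human erythrocytes are washed in PBS; next, they are incubated at 20% (v/v) with compound at 200 μg/mL for 1 h at 37° C. Finally, centrifuged supernatants are diluted and OD540 is taken relative to the Triton X-100 lysis control.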

[2] = test system: Pseudomonas aeruginosa ATCC 27853; settings: ATCC 27853
Summary of the method: (§1)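 MIC in μg/mL, read as no visible growth after 18-20 hours at 35° C. Peptides were serially diluted two-fold in MH-II broth plus P-80 (0.002% final, v/v) and inoculated at about 10^6 CFU/mL following the CLSI broth microdilution standard.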

[3] = test system: Acinetobacter baumannii 872842; settings: 872842
Summary of the method: as §1

[4] = test system: Escherichia coli 926415; settings: 926415
Summary of the method: as §1

[5] = test system: Escherichia coli ATCC 25922; settings: ATCC 25922
Summary of the method: as §1

[6] = test system: Enterobacter cloacae 848840; settings: 848840
Summary of the method: as §1

[7] = test system: Klebsiella pneumoniae SSI #3010; settings: SSI #3010
Summary of the method: as §1

[8] = test system: Acinetobacter baumannii DSM 30008; settings: DSM 30008
Summary of the method: as §1

[9] = test system: Klebsiella pneumoniae 968733; settings: 968733
Summary of the method: as §1

| Structure (SMILES) | Hemolysis at 200 μg/mL [1] | MIC [2] | MIC [3] | MIC [4] | MIC [5] | MIC [6] | MIC [7] | MIC [8] | MIC [9] | Pseudomonas aeruginosa ATCC 27853 MIC [2] | Escherichia coli ATCC 25922 MIC [5] | Klebsiella pneumoniae SSI #3010 MIC [7] | Acinetobacter baumannii DSM 30008 MIC [8] |
| --- | --- | --- | --- | --- | --- | --- | --- | --- | --- | --- | --- | --- | --- |
| CC(=O)N[C@H](C(=O)N[C@H]1CSSC[C@@H](C(=O)N[C@@H](CO)[C@H](C)O)NC(=O)[C@H](C(C)(C)C)NC(=O)[C@H](CO)NC(=O)[C@H](Cc2c[nH]c3ccccc23)NC(=O)[C@H](CO)NC(=O)[C@@H](CCN)NC(=O)[C@H](CCC(=O)N[C@@H](CCN)C(=O)N[C@H](C(=O)N[C@@H](CN)C(=O)N[C@H]2CCNC(=O)[C@H]([C@@H](C)O)NC(=O)[C@H](CCN)NC(=O)[C@H](CCN)NC(=O)[C@H](CC(C)C)NC(=O)[C@@H](CC(C)C)NC(=O)[C@H](CCN)NC2=O)[C@@H](C)O)NC(=O)[C@H](CN)NC(=O)[C@H](Cc2ccc(O)cc2)NC1=O)C(C)C [Ex. 124] (I: Ac-VCY[Dap]E[dDab]SWS[Tle]C[dThr(ol)] / II: [Dab]T[Dap][Dab][Dab][dL]L[Dab][Dab]T; disulfide I:2-I:11; amide I:5-II:N; lactam II:4-II:C) | 2% | 0.125 µg/mL (≈ 0.0521 µM) | 0.0625 µg/mL (≈ 0.026 µM) | 0.25 µg/mL (≈ 0.104 µM) | 0.0625 µg/mL (≈ 0.026 µM) | 0.125 µg/mL (≈ 0.0521 µM) | 0.125 µg/mL (≈ 0.0521 µM) | 0.0625 µg/mL (≈ 0.026 µM) | 0.25 µg/mL (≈ 0.104 µM) |  |  |  |  |
| CCC(=O)N[C@H](C(=O)N[C@H]1CSSC[C@@H](C(=O)N[C@@H](CO)C(N)=O)NC(=O)[C@H](C(C)(C)C)NC(=O)[C@H](CO)NC(=O)[C@H](Cc2c[nH]c3ccccc23)NC(=O)[C@H](CO)NC(=O)[C@@H](CCN)NC(=O)[C@H](CCC(=O)N[C@@H](CCN)C(=O)N[C@H](C(=O)N[C@@H](CN)C(=O)N[C@H]2CCNC(=O)[C@H]([C@@H](C)O)NC(=O)[C@H](CCN)NC(=O)[C@H](CCN)NC(=O)[C@H](CC(C)C)NC(=O)[C@@H](CC(C)C)NC(=O)[C@H](CCN)NC2=O)[C@@H](C)O)NC(=O)[C@H](CCN)NC(=O)[C@H](Cc2ccc(O)cc2)NC1=O)C(C)C [Ex. 144] (I: Propionyl-VCY[Dab]E[dDab]SWS[Tle]CS-NH2 / II: [Dab]T[Dap][Dab][Dab][dL]L[Dab][Dab]T; disulfide I:2-I:11; amide I:5-II:N; lactam II:4-II:C) | <1% | 0.125 µg/mL (≈ 0.0515 µM) | 0.0625 µg/mL (≈ 0.0258 µM) | 0.0625 µg/mL (≈ 0.0258 µM) | 0.03125 µg/mL (≈ 0.0129 µM) | 0.125 µg/mL (≈ 0.0515 µM) | 0.0625 µg/mL (≈ 0.0258 µM) | 0.0625 µg/mL (≈ 0.0258 µM) | 0.0625 µg/mL (≈ 0.0258 µM) |  |  |  |  |
| CC(C)C[C@@H]1NC(=O)[C@@H](CC(C)C)NC(=O)[C@H](CCN)NC(=O)[C@@H](NC(=O)[C@H](CN)NC(=O)[C@@H](NC(=O)[C@H](CCN)NC(=O)CC[C@@H]2NC(=O)[C@@H](CCN)NC(=O)[C@H](CCCN)NC(=O)[C@H](CCN)NC(=O)[C@H](Cc3ccc(O)cc3)NC(=O)[C@@H](NC(=O)[C@@H](O)C(C)C)CSSC[C@@H](C(=O)NC(CO)CO)NC(=O)[C@H](C(C)(C)C)NC(=O)[C@H](CO)NC(=O)[C@H](Cc3c[nH]c4ccccc34)NC2=O)[C@@H](C)O)CCNC(=O)[C@H]([C@@H](C)O)NC(=O)[C@H](CCN)NC(=O)[C@H](CCN)NC1=O [Ex. 172] (I: H-[Hiv]CY[Dab][Orn][dDab]EWS[Tle]C-{NHCH(CH2OH)2} / II: [Dab]T[Dap][Dab][Dab][dL]L[Dab][Dab]T; disulfide I:2-I:11; amide I:7-II:N; lactam II:4-II:C) | <1% | 0.25 µg/mL (≈ 0.105 µM) | 0.125 µg/mL (≈ 0.0524 µM) | 0.25 µg/mL (≈ 0.105 µM) | 0.125 µg/mL (≈ 0.0524 µM) | 0.25 µg/mL (≈ 0.105 µM) | 0.125 µg/mL (≈ 0.0524 µM) | 0.125 µg/mL (≈ 0.0524 µM) | 0.5 µg/mL (≈ 0.21 µM) |  |  |  |  |
| CN[C@H](C(=O)N[C@H](C(=O)N[C@@H](Cc1ccc(O)cc1)C(=O)N[C@H]1CSSC[C@@H](C(=O)N[C@H](C(=O)N[C@@H](C)C(=O)N[C@@H](CO)C(N)=O)C(C)(C)C)NC(=O)[C@H](Cc2c[nH]c3ccccc23)NC(=O)[C@H](CCO)NC(=O)[C@@H](CCN)NC(=O)[C@H](CCC(=O)N[C@@H](CCN)C(=O)N[C@H](C(=O)N[C@@H](CCN)C(=O)N[C@H]2CCNC(=O)[C@H]([C@@H](C)O)NC(=O)[C@H](CCN)NC(=O)[C@H](CCN)NC(=O)[C@H](CC(C)C)NC(=O)[C@@H](CC(C)C)NC(=O)[C@H](CCN)NC2=O)[C@@H](C)O)NC1=O)[C@@H](C)O)C(C)C [Ex. 185] (I: H-[NMeV]TYCE[dDab][hSer]WC[Tle]AS-NH2 / II: [Dab]T[Dab][Dab][Dab][dL]L[Dab][Dab]T; disulfide I:4-I:9; amide I:5-II:N; lactam II:4-II:C) | <1% | 0.125 µg/mL (≈ 0.0521 µM) | 0.25 µg/mL (≈ 0.104 µM) | 0.25 µg/mL (≈ 0.104 µM) | 0.125 µg/mL (≈ 0.0521 µM) | 0.25 µg/mL (≈ 0.104 µM) | 0.125 µg/mL (≈ 0.0521 µM) | 0.125 µg/mL (≈ 0.0521 µM) | 1 µg/mL (≈ 0.417 µM) |  |  |  |  |
| CC(=O)N[C@@H](CCN)C(=O)N[C@H](C(=O)N[C@H](C(=O)N[C@@H](Cc1ccc(O)cc1)C(=O)N[C@H]1CSSC[C@@H](C(=O)N[C@H](C(=O)N[C@@H](C)C(=O)N[C@H](C(N)=O)C(C)C)C(C)(C)C)NC(=O)[C@H](Cc2c[nH]c3ccccc23)NC(=O)[C@H](CO)NC(=O)[C@@H](CCN)NC(=O)[C@H](CCC(=O)N[C@@H](CCN)C(=O)N[C@H](C(=O)N[C@@H](CN)C(=O)N[C@H]2CCNC(=O)[C@H]([C@@H](C)O)NC(=O)[C@H](CCN)NC(=O)[C@H](CCN)NC(=O)[C@H](CC(C)C)NC(=O)[C@@H](CC(C)C)NC(=O)[C@H](CCN)NC2=O)[C@@H](C)O)NC1=O)[C@@H](C)O)C(C)C [Ex. 238] (I: Ac-[Dab]VTYCE[dDab]SWC[Tle]AV-NH2 / II: [Dab]T[Dap][Dab][Dab][dL]L[Dab][Dab]T; disulfide I:5-I:10; amide I:6-II:N; lactam II:4-II:C) | 2% | 0.125 µg/mL (≈ 0.0498 µM) | 0.0625 µg/mL (≈ 0.0249 µM) | 0.125 µg/mL (≈ 0.0498 µM) | 0.0625 µg/mL (≈ 0.0249 µM) | 0.125 µg/mL (≈ 0.0498 µM) | 0.125 µg/mL (≈ 0.0498 µM) | 0.03125 µg/mL (≈ 0.0125 µM) | 0.25 µg/mL (≈ 0.0996 µM) |  |  |  |  |
| CC(C)C[C@@H]1NC(=O)[C@@H](CC(C)C)NC(=O)[C@H](CCN)NC(=O)[C@@H](NC(=O)[C@H](CN)NC(=O)[C@@H](NC(=O)[C@H](CCN)NC(=O)CC[C@@H]2NC(=O)[C@H](CN)NC(=O)[C@H](Cc3ccc(O)cc3)NC(=O)[C@@H](NC(=O)[C@@H](NC(=O)[C@H]3CCC(=O)N3)C(C)C)CSSC[C@@H](C(=O)N[C@H](CO)[C@@H](C)O)NC(=O)[C@H](C(C)(C)C)NC(=O)[C@H](CO)NC(=O)[C@H](Cc3c[nH]c4ccccc34)NC(=O)[C@H]([C@@H](C)O)NC(=O)[C@@H](CCN)NC2=O)[C@@H](C)O)CCNC(=O)[C@H]([C@@H](C)O)NC(=O)[C@H](CCN)NC(=O)[C@H](CCN)NC1=O [Ex. 233] (I: [d(pGlu)]VCY[Dap]E[dDab]TWS[Tle]C[Thr(ol)] / II: [Dab]T[Dap][Dab][Dab][dL]L[Dab][Dab]T; disulfide I:3-I:12; amide I:6-II:N; lactam II:4-II:C) | <1% | 0.125 µg/mL (≈ 0.0503 µM) | 0.0625 µg/mL (≈ 0.0252 µM) | 0.0625 µg/mL (≈ 0.0252 µM) | 0.03125 µg/mL (≈ 0.0126 µM) | 0.125 µg/mL (≈ 0.0503 µM) | 0.0625 µg/mL (≈ 0.0252 µM) | 0.0625 µg/mL (≈ 0.0252 µM) | 0.0625 µg/mL (≈ 0.0252 µM) |  |  |  |  |
| CC(=O)N[C@H](C(=O)N[C@H]1CSSC[C@@H](C(=O)N[C@@H](CO)C(N)=O)NC(=O)[C@H](C(C)C)NC(=O)[C@H](CO)NC(=O)[C@H](Cc2c[nH]c3ccccc23)NC(=O)[C@H](CCC(=O)N[C@@H](CCN)C(=O)N[C@H](C(=O)N[C@@H](CN)C(=O)N[C@H]2CCNC(=O)[C@H]([C@@H](C)O)NC(=O)[C@H](CCN)NC(=O)[C@H](CCN)NC(=O)[C@H](CC(C)C)NC(=O)[C@@H](CC(C)C)NC(=O)[C@H](CCN)NC2=O)[C@@H](C)O)NC(=O)[C@@H](CCN)NC(=O)CNC(=O)[C@H](CCN)NC(=O)[C@H](Cc2ccc(O)cc2)NC1=O)C(C)C [Ex. 360] (I: Ac-VCY[Dab]G[dDab]EWSVCS-NH2 / II: [Dab]T[Dap][Dab][Dab][dL]L[Dab][Dab]T; disulfide I:2-I:11; amide I:7-II:N; lactam II:4-II:C) | 2% |  | 0.125 µg/mL (≈ 0.0528 µM) | 0.25 µg/mL (≈ 0.106 µM) |  | 0.125 µg/mL (≈ 0.0528 µM) |  |  | 0.5 µg/mL (≈ 0.211 µM) | 0.125 µg/mL | 0.0625 µg/mL | 0.0625 µg/mL | 0.0625 µg/mL |
